Assays:
[1] = system: kochia; test: Test A postemergence; type: in vivo, Kochia scoparia; details: 0 to 100 scale (0 no effect, 100 complete control), approx. 10 d
Method in brief: (§1)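 Visual 0–100 ratings (0 no effect, 100 complete control) made roughly 10 days after treatment, comparing greenhouse-grown plants to untreated controls. Formulated test chemicals, with surfactant, went either as directed soil spray at planting or onto 2–10 cm seedlings bearing one to two leaves.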

[2] = system: ragweed; test: Test A postemergence; type: in vivo, Ambrosia elatior; details: 0 to 100 scale (0 no effect, 100 complete control), approx. 10 d
Method in brief: as §1

[3] = system: galium; test: Test A postemergence; type: in vivo, Galium aparine; details: 0 to 100 scale (0 no effect, 100 complete control), approx. 10 d
Method in brief: as §1

[4] = system: ragweed; test: Test C preemergence; type: in vivo, Ambrosia elatior; details: for Ragweed plant response rating (0 to 100): Preemergence, visual rating after 13 to 15 d; for Plant response rating (scale of 0 to 100 where 0 is no effect and 100 is complete control): Ragweed, preemergence
Description: Seeds of plant species selected from blackgrass (Alopecurus myosuroides), ryegrass, Italian (Italian ryegrass, Lolium multiflorum), wheat (winter wheat, Triticum aestivum), galium (catchweed bedstraw, Galium aparine), corn (Zea mays), crabgrass, large (large crabgrass, Digitaria sanguinalis), foxtail, giant, (giant foxtail, Setaria faberii), johnsongrass (Sorghum halepense), lambsquarters (Chenopodium album), morningglory (Ipomoea coccinea), nutsedge, yellow (yellow nutsedge, Cyperus esculentus), pigweed (Amaranthus retroflexus), ragweed (common ragweed, Ambrosia elatior), soybean (Glycine max), barnyardgrass (Echinochloa crus-galli), oilseed rape (Brassica napus), waterhemp (common waterhemp, Amaranthus rudis), and velvetleaf (Abutilon theophrasti) were planted into a blend of loam soil and sand and treated preemergence with test chemicals formulated in a non-phytotoxic solvent mixture which included a surfactant. At the same time, plants selected from these crop and weed species and also chickweed (common chickweed, Stellaria media), oat, wild (wild oat, Avena fatua), and kochia (Kochia scoparia), were planted in pots containing Sunshine Redi-Earth® planting medium comprising spaghnum peat moss, vermiculite, starter nutrients and dolomitic limestone and treated with postemergence applications of test chemicals formulated in the same manner. Plants ranged in height from 2 to 18 cm (1- to 4-leaf stage) for postemergence treatments. […] A dash (-) response means no test result.

[5] = system: bluegrass; test: Test D preemergence; type: in vivo, Poa annua; details: for Plant response rating (0 to 100), Bluegrass: 16 g ai/ha, 0 is no effect, 100 is complete control; for Plant response rating: Bluegrass: scale 0 to 100
Description: (§2) Seeds of plant species selected from bluegrass (annual bluegrass, Poa annua), blackgrass (Alopecurus myosuroides), canarygrass (Phalaris minor), chickweed (common chickweed, Stellaria media), galium (catchweed bedstraw, Galium aparine), bromegrass, down (downy bromegrass, Bromus tectorum), Russian thistle (Salsola kali), field poppy (Papaver rhoeas), field violet (Viola arvensis), foxtail, green (green foxtail, Setaria viridis), deadnettle (henbit deadnettle, Lamium amplexicaule), ryegrass, Ital. (Italian ryegrass, Lolium multiflorum), kochia (Kochia scoparia), lambsquarters (Chenopodium album), oilseed rape (Brassica napus), pigweed (Amaranthus retroflexus), chamomile (scentless chamomile, Matricaria inodora), speedwell (bird's-eye speedwell, Veronica persica), barley, spring (spring barley, Hordeum vulgare), wheat, spring (spring wheat, Triticum aestivum), buckwheat, wild (wild buckwheat, Polygonum convolvulus), wild mustard (Sinapis arvensis), oat, wild (wild oat, Avena fatua), radish, wild (wild radish, Raphanus raphanistrum), […]), barley, winter (winter barley, Hordeum vulgare), and wheat, winter (winter wheat, Triticum aestivum) were planted into a silt loam soil and treated preemergence with test chemicals formulated in a non-phytotoxic solvent mixture which included a surfactant. At the same time, these species were planted in pots containing Sunshine Redi-Earth® planting medium comprising spaghnum peat moss, vermiculite, starter nutrients and dolomitic limestone and treated with postemergence applications of the test chemicals formulated in the same manner. Plants ranged in height from 2 to 18 cm (1- to 4-leaf stage). Treated plants and controls were maintained in a controlled growth environment for 14 to 21 d after which time all species were compared to controls and visually evaluated. […] A dash (-) response means no test result.

[6] = system: field poppy; test: Test D preemergence; type: in vivo, Papaver rhoeas; details: for Plant response rating (0 to 100), Field Poppy: 16 g ai/ha, 0 is no effect, 100 is complete control; for Plant response rating: Field Poppy: scale 0 to 100
Description: as §2

[7] = system: foxtail, green; test: Test D preemergence; type: in vivo, Setaria viridis; details: for Plant response rating (0 to 100), Foxtail, Green: 16 g ai/ha, 0 is no effect, 100 is complete control; for Plant response rating: Foxtail, Green: scale 0 to 100
Description: as §2

[8] = system: wheat, spring; test: Test D preemergence; type: in vivo, Triticum aestivum; details: for Plant response rating (0 to 100), Wheat, Spring: 16 g ai/ha, 0 is no effect, 100 is complete control; for Plant response rating: Wheat, Spring: scale 0 to 100
Description: as §2

[9] = system: wheat, winter; test: Test D preemergence; type: in vivo, Triticum aestivum; details: for Plant response rating (0 to 100), Wheat, Winter: 16 g ai/ha, 0 is no effect, 100 is complete control; for Plant response rating: Wheat, Winter: scale 0 to 100
Description: as §2

Compound | Plant response rating, Kochia ([1]; 125 g ai/ha) | Plant response rating, Kochia ([1]; 500 g ai/ha) | Plant response rating, Ragweed ([2]; 125 g ai/ha) | Plant response rating, Ragweed ([2]; 500 g ai/ha) | Plant response rating, Galium ([3]; 125 g ai/ha) | Plant response rating, Galium ([3]; 500 g ai/ha) | Ragweed plant response rating (0 to 100) ([4]; 31 g ai/ha) | Ragweed plant response rating (0 to 100) ([4]; 62 g ai/ha) | Plant response rating (scale of 0 to 100 where 0 is no effect and 100 is complete control) ([4]; 125 g ai/ha) | Plant response rating (scale of 0 to 100 where 0 is no effect and 100 is complete control) ([4]; 250 g ai/ha) | Plant response rating (0 to 100), Bluegrass [5] | Plant response rating: Bluegrass ([5]; 31 g ai/ha) | Plant response rating: Bluegrass ([5]; 62 g ai/ha) | Plant response rating: Bluegrass ([5]; 125 g ai/ha) | Plant response rating (0 to 100), Field Poppy [6] | Plant response rating: Field Poppy ([6]; 62 g ai/ha) | Plant response rating: Field Poppy ([6]; 125 g ai/ha) | Plant response rating (0 to 100), Foxtail, Green [7] | Plant response rating: Foxtail, Green ([7]; 62 g ai/ha) | Plant response rating: Foxtail, Green ([7]; 125 g ai/ha) | other results
FC(F)(F)COc1nc(-c2ccc(Cl)cc2)nn1Cc1ccnc(C(F)(F)F)c1 [Compound 31] | 90 | 90 | 70 | 80 | 70 | 90 | 45 | 50 | 65 | 75 | 55 | 65 | 95 | 100 | 95 | 100 | 100 | 95 | 100 | 100 | Plant response rating (0 to 100), Wheat, Spring [8]: 30; Plant response rating: Wheat, Spring ([8]; 62 g ai/ha): 40; Plant response rating: Wheat, Spring ([8]; 125 g ai/ha): 45; Plant response rating (0 to 100), Wheat, Winter [9]: 20; Plant response rating: Wheat, Winter ([9]; 62 g ai/ha): 20; Plant response rating: Wheat, Winter ([9]; 125 g ai/ha): 30
FC(F)(F)COc1nc(-c2ccccc2)nn1Cc1ccnc(C(F)(F)F)c1 [Compound 24] | 90 | 90 | 50 | 70 | 70 | 90 | 5 | 25 | 25 | 55 | 20 | 75 | 80 | 98 | 95 | 100 | 100 | 75 | 98 | 100 | Plant response rating (0 to 100), Wheat, Spring [8]: 15; Plant response rating: Wheat, Spring ([8]; 62 g ai/ha): 25; Plant response rating: Wheat, Spring ([8]; 125 g ai/ha): 15; Plant response rating (0 to 100), Wheat, Winter [9]: 15; Plant response rating: Wheat, Winter ([9]; 62 g ai/ha): 20; Plant response rating: Wheat, Winter ([9]; 125 g ai/ha): 20

Reference: patent publication US10681909B2, “Herbicidal triazoles” (FMC Corporation, priority 2014, dated 2020)
